The record followed here is US20230086702A1, “SUBSTITUTED 2-AMINO-PYRAZOLYL-[1,2,4]TRIAZOLO[1,5A]PYRIDINE DERIVATIVES AND USE THEREOF” (The Johns Hopkins University, priority 2019, published 2023).

One assay deals with T1, DLK (Homo sapiens, UniProt Q12852).
T1 construct: 10 nM DLK, catalytic domain, Carna Biosiences; purchased Carna Biosciences ('Carna Biosiences' [sic])
T1 sequence (Q12852 125-366 limits assumed): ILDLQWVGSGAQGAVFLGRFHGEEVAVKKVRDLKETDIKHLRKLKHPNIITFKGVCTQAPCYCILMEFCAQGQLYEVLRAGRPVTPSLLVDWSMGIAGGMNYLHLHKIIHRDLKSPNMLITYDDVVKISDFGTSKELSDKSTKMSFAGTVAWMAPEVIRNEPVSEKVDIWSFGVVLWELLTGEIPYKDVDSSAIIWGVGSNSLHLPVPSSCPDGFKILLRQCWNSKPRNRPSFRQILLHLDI
The assay can be described thus: DLK biochemical assay (TR-FRET, MKK7 phosphorylation). Conditions: DLK catalytic domain, MKK7 substrate, 60 μM ATP. The method in brief: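 Human DLK activity measured as phosphorylation of His-tagged MKK7 at T275/S277, detected by TR-FRET between Eu-anti-phospho-MKK7 donor (excitation 340 nm) and XL665-anti-His acceptor (665 nm). Signal taken as the XL665/Eu ratio. Detection buffer: 25 mM Tris/HCl pH 7.5, 100 mM EDTA, 100 mM NaCl, 200 mM KF, 0.01% Tween 20.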

A further assay has as its target T2, LZK (Homo sapiens, UniProt O43283).
T2 construct: 10 nM LZK, catalytic domain, Carna Biosiences in assay buffer; purchased Carna Biosciences ('Carna Biosiences' [sic])
T2 sequence (O43283 168-409 limits assumed): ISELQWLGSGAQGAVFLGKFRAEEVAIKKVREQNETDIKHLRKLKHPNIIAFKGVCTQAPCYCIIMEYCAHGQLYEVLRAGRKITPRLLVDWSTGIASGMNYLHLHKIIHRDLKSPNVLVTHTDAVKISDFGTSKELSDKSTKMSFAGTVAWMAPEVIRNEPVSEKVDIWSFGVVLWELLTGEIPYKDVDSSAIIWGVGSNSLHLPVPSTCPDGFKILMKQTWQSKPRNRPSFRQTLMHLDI
Description: LZK biochemical assay (TR-FRET, MKK7 phosphorylation). The following applies: LZK catalytic domain, MKK7 substrate, 15 μM ATP.

On to `CC[C@H](C)NC(=O)c1cc(-c2cnn(C3CCOc4ccccc43)c2)cc2nc(N)nn12` (single isomer, unassigned) [Example I-18], for which the IC50 on DLK worked out at 47 nM; against LZK it was 6 nM.

Consider `CC[C@H](C)NC(=O)c1cc(-c2cnn(Cc3cccc4cn[nH]c34)c2)cn2nc(N)nc12` (single isomer, unassigned) [Example I-23], for which the figures for the IC50 against DLK and against LZK were 2.7 nM and 56 nM, respectively.

With `CC[C@H](C)NC(=O)c1cc(-c2cnn(C(c3ccccc3)C(C)C)c2)cc2nc(N)nn12` (single isomer, unassigned) [Example I-25], the IC50 at DLK was found to be 23 nM; at LZK, 140 nM.

Consider `CC[C@H](C)NC(=O)c1cc(-c2cnn([C@H](c3ccccc3)C(C)C)c2)cc2nc(N)nn12` (single isomer, unassigned) [Example I-26], for which the IC50 amounted to 1.1 nM against DLK and 18 nM at LZK.

Turning to `CC[C@H](C)NC(=O)c1cc(-c2cnn(C(c3ccccc3)C3(C)CC3)c2)cn2nc(N)nc12` (single isomer, unassigned) [Example I-29], the IC50 worked out at 2.3 nM against DLK and 170 nM on LZK.

As to `CC[C@H](C)NC(=O)c1cc(-c2cnn(C(c3ccccc3)C3(C)CC3)c2)cn2nc(N)nc12` (single isomer, unassigned) [Example I-30], the IC50 worked out at 140 nM against DLK and 310 nM on LZK.

On to `CC[C@H](C)NC(=O)c1cc(-c2cnn(C(c3ccccc3)C3CC(F)(F)C3)c2)cn2nc(N)nc12` (single isomer, unassigned) [Example I-32], for which the IC50 is 56 nM against DLK and 180 nM at LZK.

In the case of `CC[C@H](C)NC(=O)c1cc(-c2cnn(C(c3ccccc3)C3CC(F)(F)C3)c2)cn2nc(N)nc12` (single isomer, unassigned) [Example I-33], the IC50 at DLK was found to be 2.2 nM; against LZK it was 59 nM.

For `CC[C@H](C)NC(=O)c1cc(-c2cnn(C(c3ccccc3)C(C)(C)C)c2)cn2nc(N)nc12` (single isomer, unassigned) [Example I-35], the IC50 came to 410 nM against DLK and 990 nM on LZK.

For `CC[C@H](C)NC(=O)c1cc(-c2cnn(C(c3ccccc3)C(C)(C)C)c2)cn2nc(N)nc12` (single isomer, unassigned) [Example I-36], the IC50 stood at 25 nM on DLK and 180 nM at LZK.

In the case of `CC[C@H](C)NC(=O)c1cc(-c2cnn(C(CC(F)(F)F)c3ccccc3)c2)cn2nc(N)nc12` (single isomer, unassigned) [Example I-38], the IC50 on DLK was found to be 1.3 nM; at LZK it was 91 nM.

As to `CC[C@H](C)NC(=O)c1cc(-c2cnn(C(CC(F)(F)F)c3ccccc3)c2)cn2nc(N)nc12` (single isomer, unassigned) [Example I-39], the results for the IC50 against DLK and on LZK were 24 nM and 230 nM, respectively.

Regarding `CC[C@H](C)NC(=O)c1cc(-c2cnn(C(COC)c3ccccc3)c2)cn2nc(N)nc12` (single isomer, unassigned) [Example I-41], the IC50 on DLK is 2.8 nM; on LZK, 26 nM.

As to `CC[C@H](C)NC(=O)c1cc(-c2cnn(C(COC)c3ccccc3)c2)cn2nc(N)nc12` (single isomer, unassigned) [Example I-42], the IC50 at DLK was 9.8 nM; against LZK, 37 nM.

In the case of `CC[C@H](C)NC(=O)c1cc(-c2cnn(C(c3ccc(F)cc3)C(C)C)c2)cn2nc(N)nc12` (single isomer, unassigned) [Example I-44], the IC50 against DLK came out at 33 nM; at LZK, 160 nM.

Turning to `CC[C@H](C)NC(=O)c1cc(-c2cnn([C@H](c3ccc(F)cc3)C(C)C)c2)cn2nc(N)nc12` (single isomer, unassigned) [Example I-45], the IC50 at DLK turned out to be 1.3 nM; at LZK, 32 nM.

For the molecule `CC[C@H](C)NC(=O)c1cc(-c2cnn(Cc3ccc(C(F)(F)F)cc3)c2)cn2nc(N)nc12` (single isomer, unassigned) [Example I-46], the IC50 on DLK is 25 nM; on LZK it was 40 nM.

`CCC(c1ccc(N2CCOCC2)cc1)n1cc(-c2cc(C(=O)N[C@@H](C)CC)c3nc(N)nn3c2)cn1` (single isomer, unassigned) [Example I-48]: the figures for the IC50 against DLK and at LZK were 25 nM and 120 nM, respectively.

Consider `CCC(c1ccc(N2CCOCC2)cc1)n1cc(-c2cc(C(=O)N[C@@H](C)CC)c3nc(N)nn3c2)cn1` (single isomer, unassigned) [Example I-49], for which the IC50 at DLK came out at 1.5 nM; against LZK, 17 nM.

With `CC[C@H](C)NC(=O)c1cc(-c2cnn(Cc3cccc4cn[nH]c34)c2)cc2nc(N)nn12` (single isomer, unassigned) [Example I-50], the IC50 at DLK was found to be 1.6 nM; against LZK, 25 nM.

Turning to `CC[C@H](C)NC(=O)c1cc(-c2cnn(C(c3ccccc3)C3CCOCC3)c2)cc2nc(N)nn12` (single isomer, unassigned) [Example I-52], the values for the IC50 against DLK and on LZK were 0.7 nM and 5.6 nM, respectively.

For the molecule `CC[C@H](C)NC(=O)c1cc(-c2cnn(C(c3ccccc3)C3CCOCC3)c2)cc2nc(N)nn12` (single isomer, unassigned) [Example I-53], the results for the IC50 at DLK and against LZK were 11 nM and 24 nM, respectively.

On to `CC[C@H](C)NC(=O)c1cc(-c2cnn([C@@H](CC)c3ccc(F)cc3)c2)cc2nc(N)nn12` (single isomer, unassigned) [Example I-54], for which the figures for the IC50 against DLK and at LZK were 1.9 nM and 8.5 nM, respectively.

On to `CCC(c1ccc(F)cn1)n1cc(-c2cc(C(=O)N[C@@H](C)CC)c3nc(N)nn3c2)cn1` (single isomer, unassigned) [Example I-56], for which the values for the IC50 against DLK and against LZK were 2.7 nM and 19 nM, respectively.

As to `CCC(c1ccc(F)cn1)n1cc(-c2cc(C(=O)N[C@@H](C)CC)c3nc(N)nn3c2)cn1` (single isomer, unassigned) [Example I-57], the IC50 turned out to be 59 nM against DLK and 61 nM on LZK.

`CCC(c1cncc(Cl)c1)n1cc(-c2cc(C(=O)N[C@@H](C)CC)c3nc(N)nn3c2)cn1` (single isomer, unassigned) [Example I-59]: the IC50 was found to be 20 nM at DLK and 58 nM against LZK.

With `CC[C@H](C)NC(=O)c1cc(-c2cnn([C@@H](CC)c3cncc(Cl)c3)c2)cn2nc(N)nc12` (single isomer, unassigned) [Example I-60], the IC50 stood at 3.7 nM against DLK and 8.9 nM against LZK.

With `CC[C@H](C)NC(=O)c1cc(-c2cnn(C(c3cncc(Cl)c3)C(C)C)c2)cn2nc(N)nc12` (single isomer, unassigned) [Example I-62], the IC50 at DLK came to 8.8 nM; at LZK it was 74 nM.

With `CC[C@H](C)NC(=O)c1cc(-c2cnn(C(c3cncc(Cl)c3)C(C)C)c2)cn2nc(N)nc12` (single isomer, unassigned) [Example I-63], the figures for the IC50 on DLK and against LZK were 0.4 nM and 5.2 nM, respectively.

With `CCC(c1ccc(C(F)F)nc1)n1cc(-c2cc(C(=O)N[C@@H](C)CC)c3nc(N)nn3c2)cn1` (single isomer, unassigned) [Example I-65], the IC50 on DLK worked out at 25 nM; against LZK, 33 nM.

On to `CCC(c1ccc(C(F)F)nc1)n1cc(-c2cc(C(=O)N[C@@H](C)CC)c3nc(N)nn3c2)cn1` (single isomer, unassigned) [Example I-66], for which the IC50 is 0.8 nM at DLK and 4.1 nM against LZK.

In the case of `CC[C@H](C)NC(=O)c1cc(-c2cnn(C(c3ccc(C(F)F)nc3)C(C)C)c2)cn2nc(N)nc12` (single isomer, unassigned) [Example I-68], the IC50 against DLK amounted to 14 nM; on LZK, 43 nM.

On to `CC[C@H](C)NC(=O)c1cc(-c2cnn(C(c3ccc(C(F)F)nc3)C(C)C)c2)cn2nc(N)nc12` (single isomer, unassigned) [Example I-69], for which the IC50 against DLK worked out at 1 nM; at LZK, 3.9 nM.

Turning to `CC[C@H](C)NC(=O)c1cc(-c2cnn([C@@H](CC)c3ccc(C(F)(F)F)nc3)c2)cn2nc(N)nc12` (single isomer, unassigned) [Example I-71], the IC50 came out at 1.4 nM on DLK and 4.5 nM on LZK.

As for `CC[C@H](c1ccc(C(F)(F)F)nc1)n1cc(-c2cc(C(=O)N[C@@H](C)CC)c3nc(N)nn3c2)cn1` (single isomer, unassigned) [Example I-72], the IC50 against DLK is 10 nM; on LZK, 16 nM.

For `CC[C@H](C)NC(=O)c1cc(-c2cnn(C(c3ccc(C(F)(F)F)nc3)C(C)C)c2)cn2nc(N)nc12` (single isomer, unassigned) [Example I-74], the values for the concentration for half-maximal inhibition (IC50) against DLK and on LZK were 10 nM and 16 nM, respectively.

On to `CC[C@H](C)NC(=O)c1cc(-c2cnn([C@H](c3ccc(C(F)(F)F)nc3)C(C)C)c2)cn2nc(N)nc12` (single isomer, unassigned) [Example I-75], for which the values for the IC50 on DLK and against LZK were 1.1 nM and 2.4 nM, respectively.
